Measurements taken from patent publication US20230301300A1, “HERBICIDAL COMPOSITIONS” (SYNGENTA CROP PROTECTION AG, priority 2020, published 2023).

What was measured:
Assay type in all cases: in vivo
Galium aparine (GALAP) = test: B2 Post-Emergence Efficacy - Test 2; conditions: 15 days after application, 0-100 scale
Method: (§1) Seeds of a variety of test species (see Table B1) were sown in standard soil in pots. After cultivation for 12 days (post-emergence) under controlled conditions in a glasshouse (at 24/18° C. or 20/16° C., at day/night; 16 hours light; 65% humidity), the plants were sprayed with an aqueous spray solution derived from the formulation of the technical active ingredient dissolved in IF50 (see Table B2 for composition) and adjuvant (Genapol X080) was added to the spray solution at a rate of 0.2% v/v.
(§2) After application, the test plants were grown in a glasshouse under controlled conditions (as above) and watered twice daily. Herbicidal activity was evaluated 15 days after application on a 0-100 scale. The results, where 0=no damage to test plant and 100=total kill of test plant are shown below in Tables 8 to 11.

[1] = tested on: Brachiaria plantaginea (BRAPL); test: B2 Post-Emergence Efficacy - Test 2; conditions: 15 days after application, 0=no damage, 100=total kill
Method: as §1, §2

Kochia scoparia (KSHSC) = test: B2 Post-Emergence Efficacy - Test 2; conditions: 15 days after application, 0-100 scale
Method: as §1, §2

Setaria faberi (SETFA) [2] = test: B2 Post-Emergence Efficacy - Test 2; conditions: 15 days after application, 0=no damage, 100=total kill
Method: as §1, §2

Zea mays (ZEAMX) = test: B2 Post-Emergence Efficacy - Test 2; conditions: 15 days after application; for Herbicidal activity ZEAMX: 0-100 scale; for Herbicidal activity on a 0-100 scale, ZEAMX: 0=no damage, 100=total kill
Method: as §1, §2

Bidens pilosa (BIDPI) = test: B2 Post-Emergence Efficacy - Test 2; conditions: 15 days after application, 0-100 scale
Method: as §1, §2

Lolium perenne (LOLPE) [3] = test: B2 Post-Emergence Efficacy - Test 2; conditions: 15 days after application, 0-100 scale
Method: as §1, §2

Hordeum vulgare (HORVW) = test: B2 Post-Emergence Efficacy - Test 2; conditions: 15 days after application, 0-100 scale
Method: as §1, §2

Sinapis arvensis (SINAR) = test: B2 Post-Emergence Efficacy - Test 2; conditions: 15 days after application, 0-100 scale
Method: as §1, §2

Orysa sativa (ORYSA) = test: B2 Post-Emergence Efficacy - Test 2; conditions: 15 days after application; for Herbicidal activity ORYSA: 0-100 scale; for Herbicidal activity on a 0-100 scale, ORYSA: 0=no damage, 100=total kill
Method: as §1, §2

[4] = tested on: Digitaria sanguinalis (DIGSA); test: B2 Post-Emergence Efficacy - Test 2; conditions: 15 days after application, 0=no damage, 100=total kill
Method: as §1, §2

Setaria faberi (SETFA) [5] = test: B1 Post-Emergence Efficacy - Test 1; conditions: 1000 g/ha, after 13 days, five point scale
Method: (§3) Seeds of a variety of test species are sown in standard soil in pots:— Solanum nigrum (SOLNI), Amaranthus retoflexus (AMARE), Setaria faberi (SETFA), Alopecurus myosuroides (ALOMY), Echinochloa crus-galli (ECHCG), Ipomoea hederacea (IPOHE), Lolium perenne (LOLPE). After 8 days cultivation (post-emergence) under controlled conditions in a glasshouse (at 24/16° C., day/night; 14 hours light; 65% humidity), the plants are sprayed with an aqueous spray solution derived from the formulation of the technical active ingredient in acetone/water (50:50) solution containing 0.5% Tween 20 (polyoxyethylene sorbitan monolaurate, CAS RN 9005-64-5). Compounds are applied at 1000 g/ha. The test plants are then grown in a glasshouse under controlled conditions in a glasshouse (at 24/16° C., day/night; 14 hours light; 65% humidity) and watered twice daily. After 13 days, the test is evaluated for the percentage damage caused to the plant. The biological activities are assessed on a five point scale (5=80-100%; 4=60-79%; 3=40-59%; 2=20-39%; 1=0-19%). A blank value in the table is indicative that the compound was not tested on that species.

Lolium perenne (LOLPE) [6] = test: B1 Post-Emergence Efficacy - Test 1; conditions: 1000 g/ha, after 13 days, five point scale
Method: as §3

[7] = tested on: Ipomoea hederacea (IPOHE); test: B1 Post-Emergence Efficacy - Test 1; conditions: 1000 g/ha, after 13 days, five point scale
Method: as §3

Solanum nigrum (SOLNI) = test: B1 Post-Emergence Efficacy - Test 1; conditions: 1000 g/ha, after 13 days, five point scale
Method: as §3

[8] = tested on: Amaranthus retoflexus (AMARE); test: B1 Post-Emergence Efficacy - Test 1; conditions: 1000 g/ha, after 13 days, five point scale
Method: as §3

[9] = tested on: Echinochloa crus-galli (ECHCG); test: B1 Post-Emergence Efficacy - Test 1; conditions: 1000 g/ha, after 13 days, five point scale
Method: as §3

Cc1nn(C)c(=O)c(-c2c(F)ccc(Cl)c2CCc2ccc(C#N)cc2)c1O [Compound 1.024, 4-[3-chloro-6-fluoro-2-[2-[4-(cyano)phenyl]ethyl]phenyl]-5-hydroxy-2,6-dimethyl-pyridazin-3-one]
90: Herbicidal activity GALAP (Galium aparine (GALAP); 250 g/Ha) | Herbicidal activity GALAP (Galium aparine (GALAP); 500 g/Ha) | Herbicidal activity on a 0-100 scale, BRAPL ([1]; 500 g/Ha) | Herbicidal activity on a 0-100 scale, SETFA (Setaria faberi (SETFA) [2]; 125 g/Ha) | Herbicidal activity on a 0-100 scale, SETFA (Setaria faberi (SETFA) [2]; 250 g/Ha) | Herbicidal activity BIDPI (Bidens pilosa (BIDPI); 500 g/Ha) | Herbicidal activity LOLPE (Lolium perenne (LOLPE) [3]; 125 g/Ha) | Herbicidal activity LOLPE (Lolium perenne (LOLPE) [3]; 250 g/Ha) | Herbicidal activity LOLPE (Lolium perenne (LOLPE) [3]; 500 g/Ha) | Herbicidal activity SINAR (Sinapis arvensis (SINAR); 250 g/Ha) | Herbicidal activity on a 0-100 scale, DIGSA ([4]; 250 g/Ha) | Herbicidal activity on a 0-100 scale, DIGSA ([4]; 500 g/Ha)
30: Herbicidal activity on a 0-100 scale, BRAPL ([1]; 15 g/Ha)
70: Herbicidal activity on a 0-100 scale, BRAPL ([1]; 60 g/Ha) | Herbicidal activity on a 0-100 scale, BRAPL ([1]; 125 g/Ha) | Herbicidal activity on a 0-100 scale, BRAPL ([1]; 250 g/Ha) | Herbicidal activity on a 0-100 scale, SETFA (Setaria faberi (SETFA) [2]; 30 g/Ha) | Herbicidal activity ZEAMX (Zea mays (ZEAMX); 250 g/Ha) | Herbicidal activity on a 0-100 scale, ZEAMX (Zea mays (ZEAMX); 250 g/Ha) | Herbicidal activity LOLPE (Lolium perenne (LOLPE) [3]; 30 g/Ha) | Herbicidal activity LOLPE (Lolium perenne (LOLPE) [3]; 60 g/Ha)
0: Herbicidal activity KCHSC (Kochia scoparia (KSHSC); 15 g/Ha) | Herbicidal activity KCHSC (Kochia scoparia (KSHSC); 30 g/Ha) | Herbicidal activity KCHSC (Kochia scoparia (KSHSC); 60 g/Ha) | Herbicidal activity ZEAMX (Zea mays (ZEAMX); 15 g/Ha) | Herbicidal activity on a 0-100 scale, ZEAMX (Zea mays (ZEAMX); 15 g/Ha) | Herbicidal activity HORVW (Hordeum vulgare (HORVW); 15 g/Ha) | Herbicidal activity ORYSA (Orysa sativa (ORYSA); 15 g/Ha) | Herbicidal activity on a 0-100 scale, ORYSA (Orysa sativa (ORYSA); 15 g/Ha) | Herbicidal activity ORYSA (Orysa sativa (ORYSA); 30 g/Ha) | Herbicidal activity on a 0-100 scale, ORYSA (Orysa sativa (ORYSA); 30 g/Ha) | Herbicidal activity ORYSA (Orysa sativa (ORYSA); 60 g/Ha) | Herbicidal activity on a 0-100 scale, ORYSA (Orysa sativa (ORYSA); 60 g/Ha) | Herbicidal activity ORYSA (Orysa sativa (ORYSA); 125 g/Ha) | Herbicidal activity on a 0-100 scale, ORYSA (Orysa sativa (ORYSA); 125 g/Ha) | Herbicidal activity on a 0-100 scale, DIGSA ([4]; 15 g/Ha)
80: Herbicidal activity on a 0-100 scale, SETFA (Setaria faberi (SETFA) [2]; 60 g/Ha) | Herbicidal activity BIDPI (Bidens pilosa (BIDPI); 15 g/Ha) | Herbicidal activity BIDPI (Bidens pilosa (BIDPI); 30 g/Ha) | Herbicidal activity BIDPI (Bidens pilosa (BIDPI); 60 g/Ha) | Herbicidal activity BIDPI (Bidens pilosa (BIDPI); 125 g/Ha) | Herbicidal activity BIDPI (Bidens pilosa (BIDPI); 250 g/Ha) | Herbicidal activity SINAR (Sinapis arvensis (SINAR); 15 g/Ha) | Herbicidal activity SINAR (Sinapis arvensis (SINAR); 30 g/Ha) | Herbicidal activity SINAR (Sinapis arvensis (SINAR); 60 g/Ha) | Herbicidal activity on a 0-100 scale, DIGSA ([4]; 125 g/Ha)
100: Herbicidal activity on a 0-100 scale, SETFA (Setaria faberi (SETFA) [2]; 500 g/Ha) | Herbicidal activity ZEAMX (Zea mays (ZEAMX); 500 g/Ha) | Herbicidal activity on a 0-100 scale, ZEAMX (Zea mays (ZEAMX); 500 g/Ha) | Herbicidal activity SINAR (Sinapis arvensis (SINAR); 500 g/Ha)
60: Herbicidal activity GALAP (Galium aparine (GALAP); 125 g/Ha) | Herbicidal activity on a 0-100 scale, BRAPL ([1]; 30 g/Ha)
5 (5=80-100%): percentage damage caused to the plant, SETFA (Setaria faberi (SETFA) [5]) | percentage damage caused to the plant, LOLPE (Lolium perenne (LOLPE) [6]) | percentage damage caused to the plant, IPOHE [7] | percentage damage caused to the plant, SOLNI (Solanum nigrum (SOLNI)) | percentage damage caused to the plant, AMARE [8] | percentage damage caused to the plant, ECHCG [9]
10: Herbicidal activity KCHSC (Kochia scoparia (KSHSC); 125 g/Ha) | Herbicidal activity KCHSC (Kochia scoparia (KSHSC); 250 g/Ha) | Herbicidal activity ZEAMX (Zea mays (ZEAMX); 30 g/Ha) | Herbicidal activity on a 0-100 scale, ZEAMX (Zea mays (ZEAMX); 30 g/Ha) | Herbicidal activity LOLPE (Lolium perenne (LOLPE) [3]; 15 g/Ha) | Herbicidal activity HORVW (Hordeum vulgare (HORVW); 30 g/Ha) | Herbicidal activity HORVW (Hordeum vulgare (HORVW); 60 g/Ha) | Herbicidal activity HORVW (Hordeum vulgare (HORVW); 125 g/Ha) | Herbicidal activity HORVW (Hordeum vulgare (HORVW); 250 g/Ha)
20: Herbicidal activity GALAP (Galium aparine (GALAP); 30 g/Ha) | Herbicidal activity GALAP (Galium aparine (GALAP); 60 g/Ha) | Herbicidal activity KCHSC (Kochia scoparia (KSHSC); 500 g/Ha) | Herbicidal activity on a 0-100 scale, SETFA (Setaria faberi (SETFA) [2]; 15 g/Ha) | Herbicidal activity ZEAMX (Zea mays (ZEAMX); 60 g/Ha) | Herbicidal activity on a 0-100 scale, ZEAMX (Zea mays (ZEAMX); 60 g/Ha) | Herbicidal activity HORVW (Hordeum vulgare (HORVW); 500 g/Ha) | Herbicidal activity ORYSA (Orysa sativa (ORYSA); 250 g/Ha) | Herbicidal activity on a 0-100 scale, ORYSA (Orysa sativa (ORYSA); 250 g/Ha) | Herbicidal activity on a 0-100 scale, DIGSA ([4]; 30 g/Ha)
40: Herbicidal activity ZEAMX (Zea mays (ZEAMX); 125 g/Ha) | Herbicidal activity on a 0-100 scale, ZEAMX (Zea mays (ZEAMX); 125 g/Ha) | Herbicidal activity ORYSA (Orysa sativa (ORYSA); 500 g/Ha) | Herbicidal activity on a 0-100 scale, ORYSA (Orysa sativa (ORYSA); 500 g/Ha) | Herbicidal activity on a 0-100 scale, DIGSA ([4]; 60 g/Ha)
